Reference: the supplement of paper PMC10307832

These cell lines were tested with COc1cc(-c2nn([C@H]3CC[C@H](N4CCN(C(C)=O)CC4)CC3)c3ncnc(N)c23)ccc1NC(=O)c1cc2ccccc2n1C (assay: relative viability (nuclei count vs DMSO), 5 days (fraction); higher = more cells survive). Details: 0.0128 µM.
Outline: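 Five library-drug doses, separated by factors of √10, were pinned into 1536-well plates holding lung cancer cell lines after an overnight stay at 37 °C. Cells were fixed, permeabilised and Hoechst-stained in one step after 5 days without medium change, then imaged at 4×. Viability compares treated-well with vehicle-well nuclei, counted in MetaXpress, as a median across plates. Passing plates had control CV below 25% and at least one doubling.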

Cell Line	relative viability
NCI-H1734	1

Same assay, conditions: 0.04048 µM

Cell Line	relative viability
SW 1573	0.922
NCI-H838	0.995
NCI-H520	0.959
NCI-H2126	1.01
EMC-BAC-2	1.17
NCI-H2085	1.01
HCC-366	1.04
NCI-H1666	0.872
NCI-H596	0.95
LK-2	0.949
SK-MES-1	1.07
H3255	0.962
COR-L23	1.1
COR-L 105	1.09
LOU-NH91	1.04
NCI-H2170	0.996
NCI-H2405	0.667
HOP-62	0.962
HCC-44	1.13
LU99A	0.84
BEN	0.985
HARA	0.828
HCC-78	1.06
NCI-H322M	0.897
LCLC-97TM1	0.879
NCI-H2009	0.861
A-427	0.837
NCI-H661	1.07
NCI-H1734	0.944

Same assay, conditions: 0.128 µM

Cell Line	relative viability
SW 1573	0.982
NCI-H838	0.899
NCI-H520	0.836
NCI-H2126	0.963
EMC-BAC-2	0.941
NCI-H2085	0.99
HCC-366	0.977
NCI-H1666	0.947
NCI-H596	0.833
LK-2	0.943
NCI-H2087	1.1
SK-MES-1	1.01
H3255	0.946
COR-L23	0.92
COR-L 105	0.863
LOU-NH91	0.978
NCI-H2170	0.991
NCI-H2405	0.964
HOP-62	1.03
HCC-44	0.954
LU99A	0.998
BEN	0.884
HARA	0.879
HCC-78	0.912
NCI-H322M	0.909
LCLC-97TM1	0.946
NCI-H2009	0.927
A-427	0.973
NCI-H661	1
NCI-H1734	0.948

Same assay, conditions: 1.28 µM

Cell Line	relative viability
SW 1573	0.766
NCI-H838	0.728
NCI-H520	0.778
NCI-H2126	0.792
EMC-BAC-2	0.957
NCI-H2085	0.992
HCC-366	0.916
NCI-H1666	0.941
NCI-H596	0.836
LK-2	0.794
NCI-H2087	1.11
SK-MES-1	0.912
H3255	0.763
COR-L23	1.08
COR-L 105	0.596
LOU-NH91	0.853
NCI-H2170	0.821
NCI-H2405	0.526
HOP-62	1.12
HCC-44	1.17
LU99A	0.982
BEN	0.702
HARA	0.612
HCC-78	0.567
NCI-H322M	0.69
LCLC-97TM1	0.931
NCI-H2009	0.973
A-427	0.863
NCI-H661	0.779
NCI-H1734	0.783

Each cell line was assayed with CO[C@@H]1[C@H](N(C)C(=O)c2ccccc2)C[C@H]2O[C@]1(C)n1c3ccccc3c3c4c(c5c6ccccc6n2c5c31)C(=O)NC4 [Midostaurin] + CS(=O)(=O)N1CCN(Cc2cc3nc(-c4cccc5[nH]ncc45)nc(N4CCOCC4)c3s2)CC1 [Pictilisib] (partner 1 µM) (assay: relative viability (nuclei count vs DMSO), 5 days (fraction); higher = more cells survive). Details: first compound 0.01 µM.
Outline: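 Lung cancer cell lines in 1536-well plates got either a single drug or a fixed anchor-drug dose together with five library-drug doses (not always all listed) in √10 steps, by pin tool, on the day after seeding. Nuclei were counted after 5 days, and relative viability is the treated-to-vehicle ratio of nuclei counts. Values are medians of duplicate plates.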

Cell Line	relative viability
SW 1573	0.557
NCI-H838	0.565
NCI-H520	0.257
NCI-H2126	0.541
EMC-BAC-2	0.559
NCI-H2085	0.501
HCC-366	0.167
NCI-H1666	0.406
NCI-H596	0.376
LK-2	0.592
NCI-H2087	0.851
SK-MES-1	0.412
H3255	0.503
COR-L23	0.743
COR-L 105	0.36
LOU-NH91	0.541
NCI-H2170	0.31
NCI-H2405	0.464
HOP-62	0.804
HCC-44	0.571
LU99A	0.299
BEN	0.65
HARA	0.469
HCC-78	0.216
NCI-H322M	0.52
LCLC-97TM1	0.199
NCI-H2009	0.891
A-427	0.75
NCI-H661	0.397
NCI-H1734	0.465

Same assay, conditions: first compound 0.03162 µM

Cell Line	relative viability
SW 1573	0.474
NCI-H838	0.48
NCI-H520	0.239
NCI-H2126	0.441
EMC-BAC-2	0.454
NCI-H2085	0.428
HCC-366	0.116
NCI-H1666	0.359
NCI-H596	0.435
LK-2	0.555
NCI-H2087	0.769
SK-MES-1	0.332
H3255	0.487
COR-L23	0.734
COR-L 105	0.453
LOU-NH91	0.54
NCI-H2170	0.28
NCI-H2405	0.516
HOP-62	0.641
HCC-44	0.576
LU99A	0.316
BEN	0.584
HARA	0.416
HCC-78	0.216
NCI-H322M	0.493
NCI-H2009	0.833
A-427	0.614
NCI-H661	0.386
NCI-H1734	0.424
